Assay results from ChEMBL document CHEMBL5352419, “Design, synthesis, and biological evaluation of tetrahydroquinoline amphiphiles as membrane-targeting antimicrobials against pathogenic bacteria and fungi” (Eur J Med Chem, 2022).
≈ marks a conversion by molar mass, not a printed value.

Key:
Candida albicans [1] = assay: Antimicrobial activity against Candida albicans CMCC98001 assessed as fungal growth inhibition incubated for 48 hrs by Sabouraud Dextrose broth based dilution assay; assay type: functional
Staphylococcus aureus [2] = assay: Antimicrobial activity against methicillin-resistant Staphylococcus aureus N315 assessed as bacterial growth inhibition incubated for 24 hrs by Muller Hinton broth based dilution assay; assay type: functional
[3] = Hemolytic activity in rabbit RBC incubated for 1 hr by absorbance based microplate reader assay; assay type: toxicity, cell-based, Oryctolagus cuniculus, Erythrocyte; details: rabbit red blood cells (erythrocytes)
Escherichia coli = assay: Antimicrobial activity against Escherichia coli ATCC25922 assessed as bacterial growth inhibition incubated for 24 hrs by Muller Hinton broth based dilution assay; assay type: functional
Staphylococcus aureus [4] = assay: Antimicrobial activity against methicillin-resistant Staphylococcus aureus NCTC10442 assessed as bacterial growth inhibition incubated for 24 hrs by Muller Hinton broth based dilution assay; assay type: functional
Staphylococcus aureus [5] = assay: Antimicrobial activity against Staphylococcus aureus ATCC29213 assessed as bacterial growth inhibition incubated for 24 hrs by Muller Hinton broth based dilution assay; assay type: functional
Acinetobacter baumannii [6] = assay: Antimicrobial activity against Acinetobacter baumannii ATCC17978 assessed as bacterial growth inhibition incubated for 24 hrs by Muller Hinton broth based dilution assay; assay type: functional
Pseudomonas aeruginosa = assay: Antimicrobial activity against Pseudomonas aeruginosa ATCC9027 assessed as bacterial growth inhibition incubated for 24 hrs by Muller Hinton broth based dilution assay; assay type: functional
Acinetobacter baumannii [7] = assay: Antimicrobial activity against Acinetobacter baumannii R2889 assessed as bacterial growth inhibition incubated for 24 hrs by Muller Hinton broth based dilution assay; assay type: functional
Klebsiella pneumoniae [8] = assay: Antimicrobial activity against Klebsiella pneumoniae ATCC14581 assessed as bacterial growth inhibition incubated for 24 hrs by Muller Hinton broth based dilution assay; assay type: functional
Candida albicans [9] = assay: Antimicrobial activity against Candida albicans ATCC10231 assessed as fungal growth inhibition incubated for 48 hrs by Sabouraud Dextrose broth based dilution assay; assay type: functional
Klebsiella pneumoniae [10] = assay: Antimicrobial activity against Klebsiella pneumoniae ATCC10031 assessed as bacterial growth inhibition incubated for 24 hrs by Muller Hinton broth based dilution assay; assay type: functional

Row | SMILES | MIC (Candida albicans [1]) [µg/mL] | MIC (Staphylococcus aureus [2]) [µg/mL] | HC50 at 1 h [3] [µg/mL] | MIC (Escherichia coli) [µg/mL] | MIC (Staphylococcus aureus [4]) [µg/mL] | MIC (Staphylococcus aureus [5]) [µg/mL] | MIC (Acinetobacter baumannii [6]) [µg/mL] | MIC (Pseudomonas aeruginosa) [µg/mL] | MIC (Acinetobacter baumannii [7]) [µg/mL] | MIC (Klebsiella pneumoniae [8]) [µg/mL] | MIC (Candida albicans [9]) [µg/mL] | MIC (Klebsiella pneumoniae [10]) [µg/mL]
1 | CCCCCCCN1CCCc2cc(OCCCCNC(=N)N)ccc21 | 3.12 (≈ 8.67 µM) | 0.78 (≈ 2.16 µM) | 169 | 3.12 (≈ 8.67 µM) | 0.78 (≈ 2.16 µM) | 1.56 (≈ 4.33 µM) | 6.25 (≈ 17.3 µM) | 6.25 (≈ 17.3 µM) | 6.25 (≈ 17.3 µM) | 1.56 (≈ 4.33 µM) | 6.25 (≈ 17.3 µM) | 1.56 (≈ 4.33 µM)
2 | CC(C)=CCN1CCCc2cc(OCCCCCCCCCCCCNC(=N)N)ccc21 | 0.78 (≈ 1.76 µM) | 0.78 (≈ 1.76 µM) | > 200 | 12.5 (≈ 28.2 µM) | 0.78 (≈ 1.76 µM) | 1.56 (≈ 3.52 µM) | 12.5 (≈ 28.2 µM) | 50 (≈ 113 µM) | 12.5 (≈ 28.2 µM) | 3.12 (≈ 7.06 µM) | 0.78 (≈ 1.76 µM) | 3.12 (≈ 7.06 µM)
3 | CCCCCCCN1CCCc2cc(OCC(=O)N[C@@H](CCCNC(=N)N)C(=O)OC)ccc21 | 12.5 (≈ 26.3 µM) | 1.56 (≈ 3.28 µM) | > 200 | 12.5 (≈ 26.3 µM) | 1.56 (≈ 3.28 µM) | 3.12 (≈ 6.57 µM) | 12.5 (≈ 26.3 µM) | 12.5 (≈ 26.3 µM) | 12.5 (≈ 26.3 µM) | 6.25 (≈ 13.1 µM) | 25 (≈ 52.6 µM) | 6.25 (≈ 13.1 µM)
4 | CC(C)=CCN1CCCc2cc(OCCCCCCCCCCNC(=N)N)ccc21 | 1.56 (≈ 3.76 µM) | 0.78 (≈ 1.88 µM) | > 200 | 12.5 (≈ 30.1 µM) | 1.56 (≈ 3.76 µM) | 1.56 (≈ 3.76 µM) | 25 (≈ 60.3 µM) | 50 (≈ 121 µM) | 12.5 (≈ 30.1 µM) | 6.25 (≈ 15.1 µM) | 1.56 (≈ 3.76 µM) | 3.12 (≈ 7.54 µM)
5 | CCCCCCCCCN1CCCc2cc(OCC(=O)N[C@@H](CCCNC(=N)N)C(=O)N[C@@H](CCCNC(=N)N)C(=O)N[C@@H](CCCNC(=N)N)C(=O)OC)ccc21 | 50 (≈ 61.3 µM) | 1.56 (≈ 1.91 µM) | > 200 | 12.5 (≈ 15.3 µM) | 1.56 (≈ 1.91 µM) | 3.12 (≈ 3.83 µM) | 12.5 (≈ 15.3 µM) | 25 (≈ 30.6 µM) | 50 (≈ 61.3 µM) | 12.5 (≈ 15.3 µM) | > 50 | 12.5 (≈ 15.3 µM)
6 | CCCCCN1CCCc2cc(OCCCCNC(=N)N)ccc21 | 50 (≈ 150 µM) | 1.56 (≈ 4.69 µM) | 178 | 12.5 (≈ 37.6 µM) | 1.56 (≈ 4.69 µM) | 1.56 (≈ 4.69 µM) | 12.5 (≈ 37.6 µM) | 25 (≈ 75.2 µM) | 25 (≈ 75.2 µM) | 12.5 (≈ 37.6 µM) | 50 (≈ 150 µM) | 6.25 (≈ 18.8 µM)
7 | CCCCCCCCCN1CCCc2cc(OCC(=O)N[C@@H](CCCNC(=N)N)C(=O)N[C@@H](CCCNC(=N)N)C(N)=O)ccc21 | 50 (≈ 77.5 µM) | 3.12 (≈ 4.85 µM) | > 200 | 25 (≈ 38.8 µM) | 3.12 (≈ 4.85 µM) | 3.12 (≈ 4.85 µM) | 12.5 (≈ 19.4 µM) | 25 (≈ 38.8 µM) | 50 (≈ 77.5 µM) | 6.25 (≈ 9.69 µM) | > 50 | 6.25 (≈ 9.69 µM)
8 | CCCCCCCCCN1CCCc2cc(OCC(=O)N[C@@H](CCCNC(=N)N)C(=O)N[C@@H](CCCNC(=N)N)C(=O)OC)ccc21 | 50 (≈ 75.8 µM) | 1.56 (≈ 2.36 µM) | > 200 | 3.12 (≈ 4.74 µM) | 1.56 (≈ 2.36 µM) | 1.56 (≈ 2.36 µM) | 6.25 (≈ 9.47 µM) | 6.25 (≈ 9.47 µM) | 25 (≈ 37.9 µM) | 3.12 (≈ 4.74 µM) | > 50 | 3.12 (≈ 4.74 µM)
9 | CCCCCCCN1CCCc2cc(O)ccc21 | > 50 | 12.5 (≈ 50.5 µM) | > 200 | > 50 | 12.5 (≈ 50.5 µM) | 12.5 (≈ 50.5 µM) |  |  |  |  | > 50 | 
10 | CC(C)=CCN1CCCc2cc(OCCCCCCCCCCCCBr)ccc21 | > 50 | > 50 | > 200 | > 50 | > 50 | > 50 |  |  |  |  | > 50 | 
11 | CC(C)=CCN1CCCc2cc(OCCCCN3CCSCC3)ccc21 | > 50 | > 50 | > 200 | > 50 | > 50 | > 50 |  |  |  |  | > 50 | 
12 | CC(C)=CCN1CCCc2cc(OCCCCCCNC(=N)N)ccc21 | 12.5 (≈ 34.9 µM) | 0.78 (≈ 2.18 µM) | 184 | 6.25 (≈ 17.4 µM) | 0.78 (≈ 2.18 µM) | 1.56 (≈ 4.35 µM) | 25 (≈ 69.7 µM) | 25 (≈ 69.7 µM) | 12.5 (≈ 34.9 µM) | 6.25 (≈ 17.4 µM) | 12.5 (≈ 34.9 µM) | 6.25 (≈ 17.4 µM)
13 | CNCCCCOc1ccc2c(c1)CCCN2CC=C(C)C | 50 (≈ 165 µM) | 6.25 (≈ 20.7 µM) | > 200 | 25 (≈ 82.7 µM) | 12.5 (≈ 41.3 µM) | 25 (≈ 82.7 µM) |  |  |  |  | 50 (≈ 165 µM) | 
